Calls of active or inactive are those of the source. No cut-off for these calls is given here.
Experiments:
B16-F10 [1] = assay: Induction of apoptosis in mouse B16F10 cells assessed as increase in cytochrome C level at 20 uM after 36 hrs by western blot analysis; format: functional, cell-based
[2] = Cell cycle arrest in mouse B16F10 cells assessed as accumulation at S phase at 20 uM after 24 hrs by propidium iodide staining based flow cytometry (reference value: 5.4 %); format: functional; conditions: B16-F10
[3] = Induction of apoptosis in mouse NIH/3T3 cells assessed as necrotic cells at 20 uM after 24 hrs by annexin-V-FITC/propidium iodide staining based flow cytometry (reference value: 0.24 %); format: cell-based; conditions: nih3t3, 24 h
Gallus gallus = organism: Gallus gallus; assay: Antiangiogenic activity in chicken embryo assessed as inhibition of neovascularization at 40 uM after 4 hrs by microscopic analysis; format: functional, tissue-based
B16-F10 [4] = assay: Antitumor activity in mouse B16F10 cells xenografted in C57BL/J mouse assessed as decrease in VEGFR2 expression in tumor at 10 mg/kg, ip by immunohistochemical analysis; format: functional, organism-based
B16-F10 [5] = assay: Induction of apoptosis in mouse B16F10 cells assessed as increase in cytochrome C level at 10 uM after 36 hrs by western blot analysis; format: functional, cell-based
MDA-MB-231 = assay: Induction of apoptosis in human MDA-MB-231 cells assessed as viable cells at 20 uM after 24 hrs by annexin-V-FITC/propidium iodide staining based flow cytometry (reference value: 90.77 %); format: functional; conditions: MDA-MB-231, 24 h, read-out: Activity
B16-F10 [6] = assay: Induction of apoptosis in mouse B16F10 cells assessed as increase in cleaved caspase 3 level at 10 uM after 36 hrs by western blot analysis; format: functional, cell-based
HeLa = assay: Cytotoxicity against human HeLa cells after 72 hrs by MTT assay; format: functional, cell-based
RAW264.7 = assay: Induction of apoptosis in mouse RAW264.7 cells assessed as late apoptotic cells at 20 uM after 24 hrs by annexin-V-FITC/propidium iodide staining based flow cytometry (reference value: 5.64 %); format: cell-based; conditions: raw264.7, 24 h
[7] = Induction of apoptosis in mouse NIH/3T3 cells assessed as late apoptotic cells at 20 uM after 24 hrs by annexin-V-FITC/propidium iodide staining based flow cytometry (reference value: 0.28 %); format: cell-based; conditions: nih3t3, 24 h
[8] = Induction of apoptosis in mouse NIH/3T3 cells assessed as viable cells at 20 uM after 24 hrs by annexin-V-FITC/propidium iodide staining based flow cytometry (reference value: 99.06 %); format: cell-based, NIH3T3; conditions: read-out: Activity
Mus musculus = assay: Toxicity in C57BL/J mouse xenografted with mouse B16F10 cells assessed as animal survival at 10 mg/kg, ip measured upto 45 days post tumor inoculation; format: organism-based, B16-F10; conditions: in vivo, 1080 h
B16-F10 [9] = assay: Antitumor activity in mouse B16F10 cells xenografted in C57BL/J mouse assessed as increase of apoptotic protein Bax level in tumor lysates at 10 mg/kg, ip by western blot analysis; format: functional, organism-based; conditions: Neoplasm, Lysate
A549 = assay: Induction of apoptosis in human A549 cells assessed as viable cells at 20 uM after 24 hrs by annexin-V-FITC/propidium iodide staining based flow cytometry (reference value: 87.96 %); format: functional; conditions: A549, 24 h, read-out: Activity
[10] = Cell cycle arrest in mouse B16F10 cells assessed as accumulation at G2/M phase at 20 uM after 24 hrs by propidium iodide staining based flow cytometry (reference value: 15.2 %); format: functional; conditions: B16-F10
B16-F10 [11] = assay: Antitumor activity in mouse B16F10 cells xenografted in C57BL/J mouse assessed as increase of apoptotic protein cleaved caspase 9 level in tumor lysates at 10 mg/kg, ip by western blot analysis; format: functional, organism-based; conditions: Neoplasm, Lysate
[12] = Cytotoxicity against mouse B16F10 cells at 10 and 20 uM after 72 hrs by MTT assay; format: functional, B16-F10
B16-F10 [13] = assay: Induction of apoptosis in mouse B16F10 cells assessed as early apoptotic cells at 20 uM after 24 hrs by annexin-V-FITC/propidium iodide staining based flow cytometry (reference value: 0.46 %); format: functional
B16-F10 [14] = assay: Induction of apoptosis in mouse B16F10 cells assessed as increase in cleaved caspase 3 level at 20 uM after 36 hrs by western blot analysis; format: functional, cell-based

Compound: CCCCCCCCCCCCCCCC[N+](C)(CCCCCCCCCCCCCCCC)CCNC(=O)[C@@]1(O)CC[C@H]2[C@@H]3CCC4=CC(=O)CC[C@]4(C)[C@H]3[C@@H](O)C[C@@]21C.[Cl-]
- Activity (B16-F10 [1]): Active
- Activity [2]: 9.6%
- Activity [3]: 0.51%
- inhibition (Gallus gallus): Active
- inhibition (B16-F10 [4]): Active
- Activity (B16-F10 [5]): Active
- viability at 20 µM (MDA-MB-231): 50.7%
- Activity (B16-F10 [6]): Active
- IC50 (HeLa): 5.2 µM
- Activity (RAW264.7): 2.83%
- Activity [7]: 0.55%
- viability at 24 h, 20 µM [8]: 90.4%
- Activity (Mus musculus): Non-toxic
- Activity (B16-F10 [9]): Active
- viability at 20 µM (A549): 25.1%
- Activity [10]: 41.4%
- Activity (B16-F10 [11]): Active
- Activity [12]: >90%
- Activity (B16-F10 [13]): 1.67%
- Activity (B16-F10 [14]): Active

— ChEMBL document CHEMBL3751695, “Cationic lipid-conjugated hydrocortisone as selective antitumor agent” (Eur J Med Chem, 2016)
